Data published in US20240109853A1 (Shanghai Yao Yuan Biotechnology Co., Ltd., priority 2020, published 2024).

Experiments:
ALPK1 = ALPK1 (Homo sapiens (Human), UniProt Q96QP1); experiment: ALPK1 in vitro kinase assay (HTRF of TIFA phosphorylation); assay type: biochemical
[1] = test system: ALPK1-dependent NFκB reporter gene activation in HEK293 cells stably expressing an NF-kB reporter (G9 cells); experiment: NFκB gene reporter alkaline phosphatase assay; assay type: cell-based; details: Homo sapiens, HEK293; read-out: NFkB assay IC50
Method in brief: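 Inhibition of ALPK1-driven NF-kB activation is measured as reduced reporter phosphatase activity after agonist challenge with D-glycero-D-manno-6-fluoro-heptose-1β-S-ADP. Cells receive serially diluted compound 30 min beforehand. Values are IC50s from non-linear regression.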

ALPK1, sequence (Q96QP1 whole entry): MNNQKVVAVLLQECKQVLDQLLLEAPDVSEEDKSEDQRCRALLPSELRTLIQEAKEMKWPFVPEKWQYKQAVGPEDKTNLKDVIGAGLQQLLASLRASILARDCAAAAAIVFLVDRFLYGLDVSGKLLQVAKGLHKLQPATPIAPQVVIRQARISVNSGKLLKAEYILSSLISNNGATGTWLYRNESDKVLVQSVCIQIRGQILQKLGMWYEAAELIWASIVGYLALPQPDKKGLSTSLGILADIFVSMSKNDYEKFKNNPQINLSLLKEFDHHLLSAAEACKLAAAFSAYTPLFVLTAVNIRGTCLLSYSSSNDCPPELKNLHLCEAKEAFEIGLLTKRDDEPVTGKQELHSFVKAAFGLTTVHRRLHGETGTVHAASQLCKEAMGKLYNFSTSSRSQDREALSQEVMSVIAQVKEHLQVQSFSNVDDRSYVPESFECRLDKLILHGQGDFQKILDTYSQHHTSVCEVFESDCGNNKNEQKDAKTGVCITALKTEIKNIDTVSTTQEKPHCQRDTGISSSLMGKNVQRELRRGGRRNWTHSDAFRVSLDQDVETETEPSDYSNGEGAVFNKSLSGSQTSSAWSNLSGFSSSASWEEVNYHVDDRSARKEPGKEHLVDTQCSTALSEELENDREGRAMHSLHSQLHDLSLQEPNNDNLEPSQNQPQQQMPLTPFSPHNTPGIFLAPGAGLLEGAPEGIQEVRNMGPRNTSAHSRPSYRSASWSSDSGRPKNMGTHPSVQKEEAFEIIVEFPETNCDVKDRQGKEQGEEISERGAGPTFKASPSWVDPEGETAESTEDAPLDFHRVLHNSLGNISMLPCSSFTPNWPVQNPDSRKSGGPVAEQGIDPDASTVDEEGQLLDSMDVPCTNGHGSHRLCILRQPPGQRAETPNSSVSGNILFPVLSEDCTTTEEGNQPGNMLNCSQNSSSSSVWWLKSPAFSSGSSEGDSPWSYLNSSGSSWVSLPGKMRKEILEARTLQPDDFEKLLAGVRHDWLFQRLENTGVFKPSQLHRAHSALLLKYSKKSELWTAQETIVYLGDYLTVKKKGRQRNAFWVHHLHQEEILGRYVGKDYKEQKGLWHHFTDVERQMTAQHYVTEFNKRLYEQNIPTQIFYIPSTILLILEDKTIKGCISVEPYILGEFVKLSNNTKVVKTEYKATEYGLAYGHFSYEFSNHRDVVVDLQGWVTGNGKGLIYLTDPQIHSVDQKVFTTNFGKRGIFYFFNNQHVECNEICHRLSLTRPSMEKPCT

SMILES | IC50 (ALPK1) | IC50 [1]
NC1CCN(c2ccc(CNC(=O)Nc3nc(C4(c5ccc(Br)cc5)CCCC4)cs3)cc2)CC1 [Example A191, 1-(4-(4-aminopiperidin-1-yl)benzyl)-3-(4-(1-(4-bromophenyl)cyclopent-yl)thiazol-2-yl)urea] | 80 nM | 6910 nM
O=C(NCc1cc(F)c(N2CCNCC2)c(F)c1)Nc1nc(C2(c3ccc(Br)cc3)CCCC2)cs1 [Example A192, 1-(4-(1-(4-bromophenyl)cyclopent-yl)thiazol-2-yl)-3-(3,5-difluoro-4-(piperazin-1-yl)benzyl)urea] | 106 nM | 4340 nM
CC1CN(c2ccc(CNC(=O)Nc3nc(C(C)(C)c4ccc(Br)cc4)cs3)cc2)CCN1 (stereo not shown) [Example A194, 1-(4-(2-(4-bromophenyl)propan-2-yl)thiazol-2-yl)-3-(4-(3-methylpiperazin-1-yl)benzyl)urea] | 172 nM | 3710 nM
CC(C)(c1ccc(Br)cc1)c1csc(NC(=O)NCc2ccc(N3CCNC(=O)C3)cc2)n1 [Example A195, 1-(4-(2-(4-bromophenyl)propan-2-yl)thiazol-2-yl)-3-(4-(3-oxopiperazin-1-yl)benzyl)urea] | 132 nM | 9940 nM
CC(C)(c1ccc(Br)c(F)c1)c1csc(NC(=O)NCc2cnc(N3CCNCC3)nc2)n1 [Example A196, 1-(4-(2-(4-bromo-3-fluorophenyl)propan-2-yl)thiazol-2-yl)-3-((2-(piperazin-1-yl)pyrimidin-5-yl)methyl)urea] | 76 nM | 3340 nM
CC(C)(c1ccc(Br)cc1)c1csc(NC(=O)NCc2ccc(NCCN)c(F)c2)n1 [Example A198, 1-(4-((2-aminoethyl)amino)-3-fluorobenzyl)-3-(4-(2-(4-bromophenyl)propan-2-yl)thiazol-2-yl)urea] | 18 nM | 1320 nM
COc1ccc(C(C)(C)c2csc(NC(=O)NCc3ccc(N4CCC(N)C4)cn3)n2)cc1 (stereo not shown) [Example A200, 1-((5-(3-aminopyrrolidin-1-yl)pyridin-2-yl)methyl)-3-(4-(2-(4-methoxyphenyl)propan-2-yl)thiazol-2-yl)urea] | 43 nM | 520 nM
COc1ccc(C(C)(C)c2csc(NC(=O)NCc3cc(F)c(N4CCC(N)C4)c(F)c3)n2)cc1 (stereo not shown) [Example A201, 1-(4-(3-aminopyrrolidin-1-yl)-3,5-difluorobenzyl)-3-(4-(2-(4-methoxyphenyl)propan-2-yl)thiazol-2-yl)urea] | 25 nM | 530 nM
COc1ccc(C(C)(C)c2csc(NC(=O)NCc3ccc(NCCN)nc3)n2)cc1 [Example A202, 1-((6-((2-aminoethyl)amino)pyridin-3-yl)methyl)-3-(4-(2-(4-methoxyphenyl)propan-2-yl)thiazol-2-yl)urea] | 34 nM | 5710 nM
COc1ccc(C(C)(C)c2csc(NC(=O)NCc3ccc(C(=O)NCCN)nc3)n2)cc1 [Example A203, N-(2-aminoethyl)-5-((3-(4-(2-(4-methoxyphenyl)propan-2-yl)thiazol-2-yl)ureido)methyl)picolin-amide] | 94 nM | 5700 nM
CC(C)(c1ccc(Br)cc1)c1csc(NC(=O)NCc2ccc(N3CCC(N)CC3)cc2)n1 [Example A204, 1-(4-(4-aminopiperidin-1-yl)benzyl)-3-(4-(2-(4-bromophenyl)propan-2-yl)thiazol-2-yl)urea] | 9 nM | 1890 nM
CC(C)(c1ccc(Br)cc1)c1csc(NC(=O)NCc2ccc(NCCN)cc2)n1 [Example A205, 1-(4-((2-aminoethyl)amino)ben-zyl)-3-(4-(2-(4-bromophenyl)propan-2-yl)thiazol-2-yl)urea] | 59 nM | 1480 nM
CC(C)(c1ccc(Br)cc1)c1csc(NC(=O)NCc2ccnc(N3CCNCC3)c2F)n1 [Example A207, 1-(4-(2-(4-bromophenyl)propan-2-yl)thiazol-2-yl)-3-((3-fluoro-2-(piperazin-1-yl)pyridin-4-yl)methyl)urea] | 99 nM | 2180 nM
COc1ccc(C(C)(C)c2csc(NC(=O)NCc3cnc(N4CCN(CCO)CC4)nc3)n2)cc1 [Example A208, 1-((2-(4-(2-hydroxyethyl)piperazin-1-yl)pyrimidin-5-yl)methyl)-3-(4-(2-(4-methoxyphenyl)propan-2-yl)thiazol-2-yl)urea] | 78 nM | 760 nM
CC(C)(c1ccc(Br)cc1)c1csc(NC(=O)NCCN)n1 [Example A210, 1-(2-aminoethyl)-3-(4-(2-(4-bromophenyl)propan-2-yl)thiazol-2-yl)urea] | 95 nM | 4160 nM
CC(C)(c1ccc(Br)cc1)c1csc(NC(=O)NCc2ccc(N3CCC(CN)CC3)cc2)n1 [Example A211, 1-(4-(4-(aminomethyl)piperidin-1-yl)benzyl)-3-(4-(2-(4-bromophenyl)propan-2-yl)thiazol-2-yl)urea] | 94 nM | 2590 nM

SMILES | IC50 (ALPK1) | IC50 [1]
CC(C)(c1ccc(Br)cc1)c1csc(NC(=O)NCc2ccc(OCCN)cc2)n1 [Example A212, 1-(4-(2-aminoethoxy)benzyl)-3-(4-(2-(4-bromophenyl)propan-2-yl)thiazol-2-yl)urea] | 289 nM | 2750 nM
CC1CN(c2ccc(CNC(=O)Nc3nc(C(C)(C)c4ccc(Br)cc4)cs3)cc2)CC(C)N1 (stereo not shown) [Example A213, 1-(4-(2-(4-bromophenyl)propan-2-yl)thiazol-2-yl)-3-(4-(3,5-dimethylpiperazin-1-yl)benzyl)urea] | 9 nM | 6380 nM
CC(C)(c1ccc(Br)cc1)c1csc(NC(=O)NCc2ccc(CN3CCNCC3)c(F)c2)n1 [Example A214, 1-(4-(2-(4-bromophenyl)propan-2-yl)thiazol-2-yl)-3-(3-fluoro-4-(piperazin-1-ylmethyl)benzyl)urea] | 40 nM | 1560 nM
COc1ccc(C(C)(C)c2csc(NC(=O)NCc3cnc(N4CCC(C(N)=O)CC4)nc3)n2)cc1 [Example A215, 1-(5-((3-(4-(2-(4-methoxyphenyl)propan-2-yl)thiazol-2-yl)ureido)methyl)pyrimi-din-2-yl)piperidine-4-carboxamide] | 150 nM | 2210 nM
COc1ccc(C(C)(C)c2csc(NC(=O)NCc3cnc(N4CCN(CCO)CC4)c(F)c3)n2)cc1 [Example A216, 1-((5-fluoro-6-(4-(2-hydroxyethyl)piperazin-1-yl)pyridin-3-yl)methyl)-3-(4-(2-(4-methoxyphenyl)propan-2-yl)thiazol-2-yl)urea] | 61 nM | 1430 nM
COc1ccc(C(C)(C)c2csc(NC(=O)NCc3ccc(C(=O)N4CCC(N)C4)nc3)n2)cc1 (stereo not shown) [Example A217, 1-((6-(3-aminopyrrolidine-1-carbonyl)pyridin-3-yl)methyl)-3-(4-(2-(4-methoxyphenyl)propan-2-yl)thiazol-2-yl)urea] | 56 nM | 32600 nM
COc1ccc(C(C)(C)c2csc(NC(=O)NCc3ccc(C(=O)NCCN)cc3)n2)cc1 [Example A218, N-(2-aminoethyl)-4-((3-(4-(2-(4-methoxyphenyl)propan-2-yl)thiazol-2-yl)ureido)methyl)benza-mide] | 29 nM | 6710 nM
CC(C)(c1ccc(Br)cc1)c1csc(NC(=O)NCc2ccc(N3CCNCC3)c(Cl)c2)n1 [Example A219, 1-(4-(2-(4-bromophenyl)propan-2-yl)thiazol-2-yl)-3-(3-chloro-4-(piperazin-1-yl)benzyl)urea] | 46 nM | 2730 nM
COc1cc(CNC(=O)Nc2nc(C(C)(C)c3ccc(Br)cc3)cs2)ccc1N1CCNCC1 [Example A220, 1-(4-(2-(4-bromophenyl)propan-2-yl)thiazol-2-yl)-3-(3-methoxy-4-(piperazin-1-yl)benzyl)urea] | 44 nM | 1320 nM
CC(C)Oc1cc(CNC(=O)Nc2nc(C(C)(C)c3ccc(Br)cc3)cs2)ccc1N1CCNCC1 [Example A221, 1-(4-(2-(4-bromophenyl)propan-2-yl)thiazol-2-yl)-3-(3-isopropoxy-4-(piperazin-1-yl)benzyl)urea] | 144 nM | 2380 nM
COc1ccc(C(C)(C)c2csc(NC(=O)NCc3cnc(N4CCNCC4)nc3C)n2)cc1 [Example A223, 1-(4-(2-(4-methoxyphenyl)propan-2-yl)thiazol-2-yl)-3-((4-methyl-2-(piperazin-1-yl)pyrimidin-5-yl)methyl)urea] | 49 nM | 760 nM
COc1ccc(C(C)(C)c2csc(NC(=O)NCc3ccc(C4CCNCC4)c(F)c3)n2)cc1 [Example A224, 1-(3-fluoro-4-(piperidin-4-yl)benzyl)-3-(4-(2-(4-methoxyphenyl)propan-2-yl)thiazol-2-yl)urea] | 21 nM | 730 nM
COc1ccc(C(C)(C)c2csc(NC(=O)NCc3ccc(N4CCNCC4)c(OC(C)C)c3)n2)cc1 [Example A225, 1-(3-isopropoxy-4-(piperazin-1-yl)benzyl)-3-(4-(2-(4-methoxyphenyl)propan-2-yl)thiazol-2-yl)urea] | 108 nM | 1050 nM
COc1ccc(C(C)(C)c2csc(NC(=O)NCCCN3CCC(N)C3)n2)cc1 (stereo not shown) [Example A226, 1-(3-(3-aminopyrrolidin-1-yl)propyl)-3-(4-(2-(4-methoxyphenyl)propan-2-yl)thiazol-2-yl)urea] | 100 nM | 4820 nM
COc1ccc(C(C)(C)c2csc(NC(=O)NCCN3CCC(N)C3)n2)cc1 (stereo not shown) [Example A227, 1-(2-(3-aminopyrrolidin-1-yl)ethyl)-3-(4-(2-(4-methoxyphenyl)propan-2-yl)thiazol-2-yl)urea] | 138 nM | 3120 nM
COc1ccc(C(C)(C)c2csc(NC(=O)NCCCN3CCNC(C)C3)n2)cc1 (stereo not shown) [Example A228, 1-(4-(2-(4-methoxyphenyl)propan-2-yl)thiazol-2-yl)-3-(3-(3-methylpiperazin-1-yl)propyl)urea] | 100 nM | 3860 nM
